From patent US12263144B2, “Methods of treating IgA nephropathy with thiol-containing molecules” (Accubit LLC—Biotechnology, priority 2020, dated 2025)

Key:
Type in all cases: biochemical
[1] = tested on: natural IgA1 assembly (two heavy chains and two light chains connected via disulfide bonds); experiment: Ex vivo study: integrity of natural IgA assembly under thiol/reducing agents
Method: (§1) The overall complex size of IgA aggregates was determined either by size-exclusion chromatography (SEC: Superdex 200 Increase 10/300 by GL Cytiva), or by SDS-PAGE. For evaluating the involvement of intermolecular disulfide connectivity in IgA complexes, IgA samples were treated with either reducing agents, such as DTT, TCEP or reduced glutathione (Sigma), or interventional drugs, such as cysteamine (Sigma), WR-1065 (Sigma) and N-Acetyl-L-cysteine (VWR Chemicals) in phosphate-buffered saline (PBS) pH7.4. Before running on SEC, samples were treated with the drugs at indicated concentrations at 37° C. for one hour.
(§2) Proteins in sample buffer (Bio-Rad Laboratories, Hercules, CA, USA) with or without TCEP (for reducing or nonreducing condition, respectively) were resolved by 4-12% SDS-PAGE (Bio-Rad Laboratories). IgA bands were subsequently visualized either by staining with GelCode Blue (Thermo Fisher Scientific), or by Western blotting on PVDF membrane. For Western blotting, 5% non-fat milk was used in blocking for one hour at room temperature. The membrane was then incubated with mouse anti-Histag antibody (Thermo Scientific), or HRP-conjugated goat anti-rat IgA α-chain antibody (Cat. ab97185, Abcam, UK), or goat anti-human IgA HRP antibody (Cat: 2050-05, SouthernBiotech) for detecting rat or human IgA (Fc), respectively. The membrane was developed using the Clarity™ ECL substrate (Bio-Rad Laboratories, CA, USA).

human IgA1 (poly-IgA1) = target: T1, human IgA1 (poly-IgA1) (Homo sapiens, UniProt P01876); experiment: SEC of native human IgA1 treated ex vivo; details: IgA1 from pooled plasma of IgA nephropathy patients, different concentrations, FIG. 5 C
T1 construct: human IgA1 whole molecule was purified from pooled plasma of IgA nephropathy patients; from tissue
T1 sequence (P01876 1-353 isoform P01876-1): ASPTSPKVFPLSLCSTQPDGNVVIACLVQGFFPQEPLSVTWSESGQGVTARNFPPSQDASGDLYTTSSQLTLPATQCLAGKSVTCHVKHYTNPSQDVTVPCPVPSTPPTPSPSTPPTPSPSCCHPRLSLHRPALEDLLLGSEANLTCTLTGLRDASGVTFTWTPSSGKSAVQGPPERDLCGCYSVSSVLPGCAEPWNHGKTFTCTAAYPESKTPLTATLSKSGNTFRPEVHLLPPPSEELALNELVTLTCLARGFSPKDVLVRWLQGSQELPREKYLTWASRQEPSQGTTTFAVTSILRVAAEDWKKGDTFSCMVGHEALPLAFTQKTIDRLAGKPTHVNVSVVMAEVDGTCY
From the text: IgA1 from IgA nephropathy patient sera was purified by Jacalin (Thermo Scientific, USA)-directed affinity chromatography. Poly-IgA1 contents were further enriched via running Superdex 200 Increase gel filtration molecular sieve (GE Biosciences) and collecting high-molecular weight fractions from an AKTA protein purification system (GE Biosciences). Human serum from healthy donors was purchased from Sigma-Aldrich and total IgA1 was also purified by running Jacalin-directed chromatography. Purified total IgA1 was used for injecting mice.
as §1
In the meantime, the SEC column was also equilibrated with PBS supplemented with the reducing agent at the same concentration. For running SEC, 100 μL of the recombinant IgA (concentration varies between 1 mg/mL and 8 mg/mL) or purified native human IgA1 (˜1 mg/mL) was loaded to the column and UV absorption was recorded following elution. Recombinant IgA typically formed two elution peaks: a minor peak of ˜800 kDa poly-rIgA followed by a major peak of ˜170 kDa of monomeric rIgA. The ratios between poly-rIgA and mono-rIgA were calculated as between the corresponding areas under the curve (AUC), and the treatment effect of the thiol agents was judged by the reduction of the poly-rIgA level with a compensatory increase of the mono-rIgA content.
In addition, human IgA1 whole molecule was purified from pooled plasma of IgA nephropathy patients and subjected the sample to different concentrations of cysteamine (FIG. 5, part C). […]

rat poly-rIgA = experiment: Nonreducing SDS-PAGE analysis of rat poly-rIgA after pretreatment; details: cysteamine 0 to 10 mM; TCEP 10 mM; untreated poly-IgA >250 kDa
Method: as §2
To further ascertain the mechanism-of-action of cysteamine in targeting disulfides, nonreducing SDS-PAGE analysis was performed of rat poly-rIgA (FIG. 5, part D). The samples were pretreated with 0 to 10 mM cysteamine, or 10 mM TCEP as positive control. As expected, poly-IgA appeared as >250 kDa bands on SDS-PAGE. Dose-dependent response of poly-rIgA to cysteamine was evident, with majority of the protein running at ˜64 kDa of disaggregated monomers.

NCCS [cysteamine]
disruption of natural IgA assembly / normal pairing of IgA heavy chains [1]: did not cause unwanted disruption of natural IgA1 assembly
poly-IgA1 amount (SEC) (human IgA1 (poly-IgA1)): reduced the amounts of poly-IgA1
molecular weight of protein band after pretreatment (nonreducing SDS-PAGE) (rat poly-rIgA): ~64 kDa
